Assay results taken from PubChem BioAssay (NCI).
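Tested at 5 concentrations; 48 h exposure; 96-well plates; endpoints linearly interpolated, else capped at highest concentration. TGI marks complete inhibition of growth.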

Assays:
Assay in all cases: DTP human tumour cell line panel, 48 h
NCI-H23 lung = tested on: NCI-H23 lung
HOP-92 NSCLC = tested on: HOP-92 NSCLC
SK-MEL-2 melanoma = tested on: SK-MEL-2 melanoma
UO-31 renal = tested on: UO-31 renal
IGROV1 ovarian = tested on: IGROV1 ovarian
LOX IMVI melanoma = tested on: LOX IMVI melanoma
HL-60(TB) leukemia = tested on: HL-60(TB) leukemia
HT29 colon = tested on: HT29 colon
MOLT-4 leukemia = tested on: MOLT-4 leukemia
SK-MEL-28 melanoma = tested on: SK-MEL-28 melanoma
HCT-15 colon = tested on: HCT-15 colon
SK-OV-3 ovarian = tested on: SK-OV-3 ovarian
786-0 renal = tested on: 786-0 renal
HCT-116 colon = tested on: HCT-116 colon
SR leukemia = tested on: SR leukemia
RXF 393 renal = tested on: RXF 393 renal
M19-MEL melanoma = tested on: M19-MEL melanoma
EKVX NSCLC = tested on: EKVX NSCLC
MDA-MB-435 = tested on: MDA-MB-435
NCI/ADR-RES ovarian = tested on: NCI/ADR-RES ovarian

SMILES | TGI (NCI-H23 lung) [µM] | TGI (HOP-92 NSCLC) [µM] | TGI (SK-MEL-2 melanoma) [µM] | TGI (UO-31 renal) [µM] | TGI (IGROV1 ovarian) [µM] | TGI (LOX IMVI melanoma) [µM] | TGI (HL-60(TB) leukemia) [µM] | TGI (HT29 colon) [µM] | TGI (MOLT-4 leukemia) [µM] | TGI (SK-MEL-28 melanoma) [µM] | TGI (HCT-15 colon) [µM] | TGI (SK-OV-3 ovarian) [µM] | TGI (786-0 renal) [µM] | TGI (HCT-116 colon) [µM] | TGI (SR leukemia) [µM] | TGI (RXF 393 renal) [µM] | TGI (M19-MEL melanoma) [µM] | TGI (EKVX NSCLC) [µM] | TGI (MDA-MB-435) [µM] | TGI (NCI/ADR-RES ovarian) [µM]
Cn1cnc(CCc2ccccc2)n1 | > 100 | > 100 | > 100 | > 100 | > 100 | > 100 | > 100 | > 100 | > 100 | > 100 | > 100 | > 100 | > 100 | > 100 | > 100 | > 100 | > 100 |  |  | 
CC(=O)OCC1OC(OC2C(CSC3OC(COC(C)=O)C(OC(C)=O)C(OC(C)=O)C3OC(C)=O)OC(OC(C)=O)C(OC(C)=O)C2OC(C)=O)C(OC(C)=O)C(OC(C)=O)C1OC(C)=O (stereo unspecified) | > 100 | > 100 |  | > 100 | > 100 | > 100 |  | > 100 | > 100 | > 100 | > 100 | > 100 | > 100 | > 100 | > 100 |  | > 100 | > 100 |  | 
COc1ccc(C2=Nc3ccccc3NC(=O)C2)cc1 | 67 | 54 | > 100 | > 100 | > 100 | 37.1 | 42.1 | > 100 | > 100 | > 100 | > 100 | 38.2 | > 100 | 42.3 | > 100 | 46.2 | > 100 | > 100 |  | 
O=C1C(Br)=CC2(C=C1Br)CCNC1=C2C(=O)c2ccccc2C1=O | 33.7 |  | 34.7 |  | 83.6 | 17.2 | 13.3 | > 100 | 22.7 |  | 30.3 | > 100 | 29.5 | 17.6 |  |  | 18.4 | 99.1 |  | 
CC1=C(C(=O)O)N2C(=O)[C@@H](NC(=O)C(c3ccc(O)cc3)N3CSC(=S)N(C(C)C)C3)C2SC1 (stereo partly specified) | > 100 | > 100 | > 100 | > 100 | > 100 | > 100 | > 100 | > 100 | > 100 | > 100 | > 100 | > 100 | > 100 | > 100 |  |  | > 100 | > 100 |  | 
C=CC/C=C/Cc1csc(C(C)(C)C(O)C/C=C/C(=C)CCNC(=O)OC)n1 (stereo unspecified) | > 100 | > 100 | > 100 | > 100 | > 100 | > 100 | > 79.4 | > 100 | > 100 | > 100 | > 100 | > 100 | > 100 | > 100 | > 100 | > 100 | > 100 | > 100 | > 100 | > 100
CC1SC2=NC3=C(c4ccccc4C3=O)C(c3ccc(F)cc3)N2C1=O (stereo unspecified) | > 100 | > 100 | > 100 | > 100 | > 100 |  | > 100 | > 100 | > 100 | > 100 | > 100 | > 100 | > 100 | > 100 |  |  | > 100 | > 100 |  | 
CC(C)[C@H]1CO[C@]2(C)[C@@H]3CN(Cc4ccccc4)C[C@@H]3C(=O)N12 | > 100 | > 100 | > 100 | > 100 | > 100 |  | > 100 | > 100 | > 100 | > 100 | > 100 | > 100 | > 100 | > 100 | > 100 | > 100 | > 100 | > 100 |  | 
Cc1c(/C=N/NC(=O)c2cc(Br)cc(Br)c2O)c(=O)n(-c2ccccc2)n1C | > 100 | > 100 | > 100 | > 100 |  | > 100 | 5.97 | > 100 | > 100 | 49.8 | > 100 | > 100 | > 100 | > 100 |  |  | > 100 | > 100 |  | 
